Source: US11667652B2, “MCL1 inhibitors” (Gilead Sciences, Inc., priority 2019, dated 2023)
Where two headings read alike, the source gives them in different places.

Experiments:
[1] = molecular target: MCL1/Bim (Homo sapiens (Human), UniProt Q07820); assay: MCL1/Bim Binding AlphaLISA Assay; conditions: recombinant human 6xHis-MCL1 (171-327), biotinylated Bim peptide (51-76)
How it was run: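 AlphaLISA with 0.0625 nM human 6×His-MCL1 (171-327) and 0.0625 nM biotinylated Bim (51-76) peptide in 20 mM Hepes pH 7.5, 150 mM NaCl, 0.002% Brij 35, 1 mM DTT, 0.01% BSA. Compound preincubated with MCL1 1 h, Bim added 2 h, then acceptor and donor beads 1 h each; % inhibition versus DMSO and no-protein/peptide controls.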

[2] = system: SKBR3 cells; assay: SKBR3 Cell Viability Assay; assay type: cell-based; conditions: CellTiter Glo, read-out: MCL1 CV SKBR3 EC50
How it was run: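 Viability was measured by CellTiter-Glo luminescence after 72 h at 37° C, 5% CO2. Each well held 6,000 SKBR3 cells in McCoy's 5A/10% FBS dispensed onto serially diluted compound. Percent inhibition is relative to DMSO and 10 μM puromycin controls.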

[3] = Homo sapiens, SK-BR-3, 72 hours

Chain of MCL1/Bim (Q07820 171-327): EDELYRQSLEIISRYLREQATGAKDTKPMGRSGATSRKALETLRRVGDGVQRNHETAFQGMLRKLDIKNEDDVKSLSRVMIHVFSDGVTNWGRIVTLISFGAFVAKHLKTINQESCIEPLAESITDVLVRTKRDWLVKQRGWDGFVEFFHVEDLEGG

SMILES	IC50 [1]	EC50 [2, 3]	EC50 ([2]; 72 hours)
CO[C@H]1/C=C/C[C@H](C)[C@@H](C)[S@@](=O)(NC(=O)c2cnn(C)c2)=NC(=O)c2ccc3c(c2)N(C[C@@H]2CC[C@H]21)C[C@]1(CO3)SCCc2cc(Cl)ccc21 [Example 180]	0.06 nM	24.9 nM	–
CO[C@H]1/C=C/C[C@H](C)C[S@@](=O)(NC(=O)c2cnn(C)c2)=NC(=O)c2ccc3c(n2)N(C[C@@H]2CC[C@H]21)C[C@@]1(CCCc2cc(Cl)ccc21)CO3 [Example 185]	0.04 nM	17.2 nM	–
CO[C@H]1/C=C/C[C@H](C)C[S@@](=O)(NC(=O)c2cc3n(c2)CCOC3)=NC(=O)c2ccc3c(n2)N(C[C@@H]2CC[C@H]21)C[C@@]1(CCCc2cc(Cl)ccc21)CO3 [Example 186]	0.07 nM	26.6 nM	–
CO[C@H]1/C=C/C[C@H](C)C[S@@](=O)(NC(=O)NC2CC2)=NC(=O)c2ccc3c(n2)N(C[C@@H]2CC[C@H]21)C[C@@]1(CCCc2cc(Cl)ccc21)CO3 [Example 187]	0.04 nM	47.8 nM	–
CO[C@H]1/C=C/C[C@H](C)C[S@@](=O)(NC(=O)[C@H]2C[C@](C)(O)C2)=NC(=O)c2ccc3c(n2)N(C[C@@H]2CC[C@H]21)C[C@@]1(CCCc2cc(Cl)ccc21)CO3 [Example 189]	0.07 nM	71.8 nM	–
COc1nn(C)cc1C(=O)N[S@@]1(=O)=NC(=O)c2ccc3c(n2)N(C[C@@H]2CC[C@H]2[C@@H](OC)/C=C/C[C@H](C)C1)C[C@@]1(CCCc2cc(Cl)ccc21)CO3 [Example 191]	0.02 nM	–	36.6 nM
COC1CC(C(=O)N[S@@]2(=O)=NC(=O)c3ccc4c(n3)N(C[C@@H]3CC[C@H]3[C@@H](OC)/C=C/C[C@H](C)C2)C[C@@]2(CCCc3cc(Cl)ccc32)CO4)C1 (some centres unmarked) [Example 195]	0.05 nM	23.8 nM	–

Second part, the compound after the results:

IC50 [1]	EC50 [2, 3]	EC50 ([2]; 72 hours)	SMILES
0.07 nM	24.1 nM	–	CO[C@H]1/C=C/C[C@H](C)C[S@@](=O)(NC(=O)c2cc3n(c2)CCOC3)=NC(=O)c2ccc3c(c2)N(C[C@@H]2CC[C@H]21)C[C@]1(CO3)SCCc2cc(Cl)ccc21 [Example 179]
0.27 nM	57 nM	–	CO[C@H]1/C=C/C[C@H](C)[C@@H](C)[S@@](=O)(NC(=O)c2cc3n(c2)CCOC3)=NC(=O)c2ccc3c(c2)N(C[C@@H]2CC[C@H]21)C[C@]1(CO3)SCCc2cc(Cl)ccc21 [Example 181]
0.24 nM	454 nM	–	CO[C@H]1/C=C/CCC[S@@](=O)(NC(=O)NC2CC2)=NC(=O)c2ccc3c(c2)N(C[C@@H]2CC[C@H]21)C[C@]1(CO3)SCCc2cc(Cl)ccc21 [Example 183]
0.26 nM	262 nM	–	CO[C@H]1/C=C/CCC[S@@](=O)(NC(=O)c2cc3n(c2)CCOC3)=NC(=O)c2ccc3c(c2)N(C[C@@H]2CC[C@H]21)C[C@]1(CO3)SCCc2cc(Cl)ccc21 [Example 184]
0.15 nM	306 nM	–	CO[C@H]1/C=C/C[C@H](C)C[S@@](=O)(NC(=O)[C@H]2C[C@@](C)(O)C2)=NC(=O)c2ccc3c(n2)N(C[C@@H]2CC[C@H]21)C[C@@]1(CCCc2cc(Cl)ccc21)CO3 [Example 190]
0.03 nM	–	136 nM	COc1nn(C)cc1C(=O)N[S@@]1(=O)=NC(=O)c2ccc3c(n2)N(C[C@@H]2CC[C@H]2[C@@H](OC)/C=C\C[C@H](C)C1)C[C@@]1(CCCc2cc(Cl)ccc21)CO3 [Example 192]
0.35 nM	–	516 nM	COc1nn(C)cc1C(=O)N[S@@]1(=O)=NC(=O)c2ccc3c(n2)N(C[C@@H]2CC[C@H]2[C@@H](OC)/C=C/[C@@H](OC)[C@H](C)C1)C[C@@]1(CCCc2cc(Cl)ccc21)CO3 [Example 197]
0.05 nM	–	22.3 nM	COc1nn(C)cc1C(=O)N[S@@]1(=O)=NC(=O)c2ccc3c(n2)N(C[C@@H]2CC[C@H]2[C@@H](OC)/C=C/[C@H](OC)[C@H](C)C1)C[C@@]1(CCCc2cc(Cl)ccc21)CO3 [Example 198]
0.05 nM	21.1 nM	–	CO[C@H]1/C=C/C[C@H](C)[C@@H](C)[S@@](=O)(NC(=O)c2cnn(C)c2)=NC(=O)c2ccc3c(n2)N(C[C@@H]2CC[C@H]21)C[C@@]1(CCCc2cc(Cl)ccc21)CO3 [Example 200]
